Assay results taken from patent US20040053898A1, “Combination preparation with a erbeta selective estrogen and serm or antiestorgen” (priority 2000, published 2004).

Legend:
[1] = test system: ERβ compared to ERα; details: in-vitro receptor binding test; cited from earlier work
[2] = test system: human estrogen receptor α (ERα) / human estrogen receptor β (ERβ); assay: binding to human estrogen receptors α and β; details: human ERα than human ERβ
[3] = test system: estrogen receptor preparations of rat prostates and rat uteri; assay: estrogen receptor binding, 3H-estradiol competition, rat prostate versus rat uterus cytosol; details: rat prostate ER versus rat uterus ER
Description: The binding affinity of the new selective estrogens (ERβ-ligands) and SERMs was tested in competitive experiments with use of 3H-estradiol as a ligand in estrogen receptor preparations of rat prostates and rat uteri.

Row | Structure (SMILES) | preference for ERβ compared to ERα [1] | binding to human ERα relative to human ERβ (fold better) [2] | RBA value in rat prostate estrogen receptor relative to RBA value in rat uterus estrogen receptor (fold better) [3]
1 | O=c1c(-c2ccc(O)cc2)coc2cc(O)cc(O)c12 [genisteine] | ERβ-selectivity | – | –
2 | C[C@]12CC[C@@H]3c4ccc(O)cc4CC[C@H]3[C@@H]1C[C@@H](O)C2=O [16α-hydroxyestrone] | – | 3 × | 5 ×
